This assay relates to L1210 leukemia ip in BDF1 mice, survival T/C. Briefly: NCI In Vivo Anticancer Drug Screen. Data for tumor model L1210 Leukemia (intraperitoneal) in B6D2F1 (BDF1) mice. The following applies: higher = longer survival. An outline of the steps:
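Mice bearing the transplanted tumor received compound or vehicle. Survival of the treated group was divided by that of the vehicle-treated control group to give the ratio.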

Where [1] appears, read: endpoint: mean survival time, dose: 50.0 mg/kg/injection, schedule: Q01DX001 (ip), vehicle: saline.
The mark [2] stands for this setting: endpoint: mean survival time, dose: 100.0 mg/kg/injection, schedule: Q01DX001 (ip), vehicle: saline.
Where [3] appears, read: endpoint: mean survival time, dose: 200.0 mg/kg/injection, schedule: Q01DX001 (ip), vehicle: saline.
The mark [4] stands for this setting: endpoint: mean survival time, dose: 400.0 mg/kg/injection, schedule: Q01DX001 (ip), vehicle: saline.

Several values for one entry are separate records, joined by “and”; a condition that tells them apart may be missing. Equal values may be shown once. Toxic doses and inconclusive results are not listed.

In the case of `NC(Cc1ccc(N(CCCl)CCCl)cc1)C(=O)O` (stereo not given), the T/C (endpoint: mean survival time, dose: 0.32 mg/kg/injection, schedule: Q01DX Z (ip), vehicle: carboxymethylcellulose (CMC)) was 110 % of control; the T/C (endpoint: mean survival time, dose: 0.37 mg/kg/injection, schedule: Q01DX Z (im), vehicle: saline) was 111 % of control; the T/C (endpoint: mean survival time, dose: 0.37 mg/kg/injection, schedule: Q01DX Z (ip), vehicle: saline) was 111 % of control; the T/C (endpoint: mean survival time, dose: 0.37 mg/kg/injection, schedule: Q01DX Z (sc), vehicle: saline) is 104 % of control; the T/C (endpoint: mean survival time, dose: 0.5 mg/kg/injection, schedule: Q01DX010 (ip), vehicle: alkali diluted with saline) was 122 % of control and 123 % of control; the T/C (endpoint: mean survival time, dose: 0.51 mg/kg/injection, schedule: Q01DX Z (ip), vehicle: carboxymethylcellulose (CMC)) is 119 % of control. Further, the T/C runs as follows: (endpoint: mean survival time, dose: 0.64 mg/kg/injection, schedule: Q01DX Z (ip), vehicle: carboxymethylcellulose (CMC)) 122 % of control; (endpoint: mean survival time, dose: 0.75 mg/kg/injection, schedule: Q01DX Z (im), vehicle: saline) 122 % of control; (endpoint: mean survival time, dose: 0.75 mg/kg/injection, schedule: Q01DX Z (ip), vehicle: saline) 115 % of control; (endpoint: mean survival time, dose: 0.75 mg/kg/injection, schedule: Q01DX Z (sc), vehicle: saline) 113 % of control; (endpoint: mean survival time, dose: 1.0 mg/kg/injection, schedule: Q01DX010 (ip), vehicle: alkali diluted with saline) 123 % of control; (endpoint: mean survival time, dose: 1.0 mg/kg/injection, schedule: Q01DX Z (ip), vehicle: methylcellulose (MC)) 151 % of control. Besides, the T/C reads like this: (endpoint: mean survival time, dose: 1.25 mg/kg/injection, schedule: Q01DX010 (ip), vehicle: saline) 118 % of control; (endpoint: mean survival time, dose: 1.28 mg/kg/injection, schedule: Q01DX Z (ip), vehicle: carboxymethylcellulose (CMC)) 151 % of control; (endpoint: mean survival time, dose: 1.5 mg/kg/injection, schedule: Q01DX Z (sc), vehicle: saline) 119 % of control; (endpoint: mean survival time, dose: 2.5 mg/kg/injection, schedule: Q01DX009 (ip), vehicle: saline) 123 % of control and 124 % of control; (endpoint: mean survival time, dose: 2.56 mg/kg/injection, schedule: Q01DX Z (ip), vehicle: carboxymethylcellulose (CMC)) 166 % of control; (endpoint: mean survival time, dose: 3.0 mg/kg/injection, schedule: Q01DX006 (iv), vehicle: saline) 119 % of control. Moreover, the T/C by setting is: (endpoint: mean survival time, dose: 3.0 mg/kg/injection, schedule: Q01DX Z (im), vehicle: saline) 166 % of control and 176 % of control; (endpoint: mean survival time, dose: 3.0 mg/kg/injection, schedule: Q01DX Z (ip), vehicle: saline) 150 % of control and 201 % of control; (endpoint: mean survival time, dose: 3.0 mg/kg/injection, schedule: Q01DX Z (sc), vehicle: saline) 161 % of control; (endpoint: mean survival time, dose: 3.2 mg/kg/injection, schedule: Q01DX Z (ip), vehicle: saline) 113 % of control; (endpoint: mean survival time, dose: 4.0 mg/kg/injection, schedule: Q01DX009 (ip), vehicle: saline) 187 % of control and 200 % of control; (endpoint: mean survival time, dose: 5.0 mg/kg/injection, schedule: Q01DX009 (ip), vehicle: saline) 167 % of control. For the same compound, the T/C runs as follows: (endpoint: mean survival time, dose: 5.0 mg/kg/injection, schedule: Q01DX010 (ip), vehicle: saline) 152 % of control; (endpoint: mean survival time, dose: 6.0 mg/kg/injection, schedule: Q01DX006 (iv), vehicle: saline) 114 % of control; (endpoint: mean survival time, dose: 6.0 mg/kg/injection, schedule: Q01DX Z (im), vehicle: saline) 154 % of control; (endpoint: mean survival time, dose: 6.0 mg/kg/injection, schedule: Q01DX Z (ip), vehicle: saline) 164 % of control; (endpoint: mean survival time, dose: 6.0 mg/kg/injection, schedule: Q01DX Z (sc), vehicle: saline) 185 % of control; (endpoint: mean survival time, dose: 6.3 mg/kg/injection, schedule: Q01DX Z (ip), vehicle: saline) 86 % of control. In addition, the T/C was 181 % of control (endpoint: mean survival time, dose: 8.0 mg/kg/injection, schedule: Q01DX001 (ip), vehicle: carboxymethylcellulose (CMC)); 111 % of control and 122 % of control (endpoint: mean survival time, dose: 8.0 mg/kg/injection, schedule: Q01DX009 (ip), vehicle: saline); 167 % of control and 193 % of control (endpoint: mean survival time, dose: 10.0 mg/kg/injection, schedule: Q01DX009 (ip), vehicle: saline); 177 % of control (endpoint: mean survival time, dose: 10.0 mg/kg/injection, schedule: Q01DX010 (ip), vehicle: saline); 253 % of control (endpoint: mean survival time, dose: 12.0 mg/kg/injection, schedule: Q01DX001 (ip), vehicle: carboxymethylcellulose (CMC)); 123 % of control (endpoint: mean survival time, dose: 12.0 mg/kg/injection, schedule: Q01DX006 (iv), vehicle: saline). Moreover, the T/C (endpoint: mean survival time, dose: 12.0 mg/kg/injection, schedule: Q01DX Z (oral), vehicle: saline) is 90 % of control; the T/C (endpoint: mean survival time, dose: 12.0 mg/kg/injection, schedule: Q01DX Z (sc), vehicle: saline) is 111 % of control; the T/C (endpoint: mean survival time, dose: 15.0 mg/kg/injection, schedule: Q01DX Z (ip), vehicle: carboxymethylcellulose (CMC)) was 172 % of control; the T/C (endpoint: mean survival time, dose: 16.0 mg/kg/injection, schedule: Q01DX009 (ip), vehicle: saline) is 93 % of control; the T/C (endpoint: mean survival time, dose: 16.0 mg/kg/injection, schedule: Q01DX Z (ip), vehicle: methylcellulose (MC)) is 90 % of control; the T/C (endpoint: mean survival time, dose: 18.0 mg/kg/injection, schedule: Q01DX001 (ip), vehicle: carboxymethylcellulose (CMC)) was 341 % of control. Besides, the T/C is 202 % of control and 233 % of control (endpoint: mean survival time, dose: 18.0 mg/kg/injection, schedule: Q01DX001 (ip), vehicle: saline); 94 % of control (endpoint: mean survival time, dose: 20.0 mg/kg/injection, schedule: Q01DX009 (ip), vehicle: saline); 117 % of control (endpoint: mean survival time, dose: 20.0 mg/kg/injection, schedule: Q01DX010 (ip), vehicle: saline); 87 % of control (endpoint: mean survival time, dose: 22.0 mg/kg/injection, schedule: Q01DX Z (ip), vehicle: carboxymethylcellulose (CMC)); 123 % of control (endpoint: mean survival time, dose: 24.0 mg/kg/injection, schedule: Q01DX006 (iv), vehicle: saline); 118 % of control and 229 % of control and 230 % of control (endpoint: mean survival time, dose: 25.0 mg/kg/injection, schedule: Q01DX001 (ip), vehicle: saline). Moreover, the T/C was 161 % of control and 240 % of control (endpoint: mean survival time, dose: 35.0 mg/kg/injection, schedule: Q01DX001 (ip), vehicle: saline); 87 % of control under setting [1]; 155 % of control and 156 % of control (endpoint: median survival time, dose: 10.0 mg/kg/injection, schedule: Q01DX009 (ip), vehicle: saline); 112 % of control (endpoint: median survival time, dose: 20.0 mg/kg/injection, schedule: Q01DX009 (ip), vehicle: saline).
Take `CCn1c(N)cc(=O)[nH]c1=S`: the T/C reads like this: under setting [1], 96 % of control; under setting [2], 108 % of control; under setting [3], 102 % of control; under setting [4], 106 % of control.
For the compound `CC(=O)Oc1ccc(Cl)cc1`, the T/C runs as follows: (endpoint: mean survival time, dose: 100.0 mg/kg/injection, schedule: Q01DX009 (ip), vehicle: saline with Tween-80) 97 % of control; (endpoint: mean survival time, dose: 100.0 mg/kg/injection, schedule: Q04DX003 (ip), vehicle: saline with Tween-80) 108 % of control; (endpoint: mean survival time, dose: 200.0 mg/kg/injection, schedule: Q01DX009 (ip), vehicle: saline with Tween-80) 103 % of control; (endpoint: mean survival time, dose: 200.0 mg/kg/injection, schedule: Q04DX003 (ip), vehicle: saline with Tween-80) 97 % of control; (endpoint: mean survival time, dose: 400.0 mg/kg/injection, schedule: Q04DX003 (ip), vehicle: saline with Tween-80) 105 % of control.
For the compound `COC1(c2ccccc2)OC12CC1CCC2C1` (stereo not given), the T/C is 98 % of control (endpoint: mean survival time, dose: 50.0 mg/kg/injection, schedule: Q04DX003 (ip), vehicle: saline); 95 % of control under setting [2]; 100 % of control (endpoint: mean survival time, dose: 100.0 mg/kg/injection, schedule: Q04DX003 (ip), vehicle: saline); 101 % of control under setting [3]; 100 % of control (endpoint: mean survival time, dose: 200.0 mg/kg/injection, schedule: Q04DX003 (ip), vehicle: saline); 95 % of control under setting [4].
For the compound `O=C(COc1ccc(Cl)cc1C(=O)O)NCc1ccc(Cl)cc1`, the T/C (endpoint: mean survival time, dose: 100.0 mg/kg/injection, schedule: Q01DX009 (ip), vehicle: gum acacia) is 92 % of control; the T/C (endpoint: mean survival time, dose: 200.0 mg/kg/injection, schedule: Q01DX009 (ip), vehicle: gum acacia) was 106 % of control; the T/C (endpoint: mean survival time, dose: 400.0 mg/kg/injection, schedule: Q01DX009 (ip), vehicle: gum acacia) was 92 % of control.
With `CSc1cc(N)nc2c1ncn2C1OC(CO)C(O)C1O` (stereo not given), the T/C under setting [2] is 113 % of control, the T/C under setting [3] was 93 % of control and the T/C under setting [4] is 103 % of control.
On to `O=C(O)/C(=C\c1ccccc1Br)c1ccc(C(F)(F)F)cc1[N+](=O)[O-]`, for which the T/C was 109 % of control (endpoint: mean survival time, dose: 100.0 mg/kg/injection, schedule: Q01DX009 (ip), vehicle: saline sonified) and 98 % of control (endpoint: mean survival time, dose: 200.0 mg/kg/injection, schedule: Q01DX009 (ip), vehicle: saline sonified).

The values are drawn from PubChem BioAssay AID248 (DTP/NCI, 2004).
